A short description of data set [1]: Volume of distribution at steady state in CD-1 mouse at 1 mg/kg, iv by mass spectrometric analysis. As to conditions: in vivo; call rule not given here. The format is ADME, organism-based.
The nature of data set [2]: Oral bioavailability in CD-1 mouse at 5 mg/kg administered via gavage by mass spectrometric analysis. The format is ADME, organism-based. As to conditions: in vivo.
Data set [3] can be described thus: AUC in CD-1 mouse at 1 mg/kg, iv by mass spectrometric analysis. The data set is classed as ADME, organism-based. As to conditions: in vivo.
Data set [4] in a line: AUC in CD-1 mouse at 5 mg/kg, po administered via gavage by mass spectrometric analysis. The following applies: in vivo. The data set is classed as ADME, organism-based.
Data set [5] deals with Isocitrate dehydrogenase [NADP] cytoplasmic (Homo sapiens, UniProt O75874, R132C). The data set can be described thus: Inhibition of IDH1 R132C mutant in human HT1080 cells assessed as inhibition of 2HG production after 48 hrs by LC-MS/MS analysis. The data set is classed as cell-based.
Isocitrate dehydrogenase [NADP] cytoplasmic (Homo sapiens, UniProt O75874, R132C), sequence (O75874 2-414 R132C limits assumed): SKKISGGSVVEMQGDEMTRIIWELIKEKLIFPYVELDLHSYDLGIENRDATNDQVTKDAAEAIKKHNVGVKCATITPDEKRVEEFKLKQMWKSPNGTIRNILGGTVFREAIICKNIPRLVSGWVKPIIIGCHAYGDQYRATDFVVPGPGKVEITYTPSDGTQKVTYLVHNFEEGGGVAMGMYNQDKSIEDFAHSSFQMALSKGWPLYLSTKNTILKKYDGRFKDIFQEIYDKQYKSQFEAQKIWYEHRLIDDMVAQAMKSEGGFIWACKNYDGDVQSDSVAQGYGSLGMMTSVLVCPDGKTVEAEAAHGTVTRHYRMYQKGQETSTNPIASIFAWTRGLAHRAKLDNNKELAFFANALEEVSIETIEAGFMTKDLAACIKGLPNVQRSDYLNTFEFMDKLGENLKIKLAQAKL
Data set [6] concerns the target Isocitrate dehydrogenase [NADP] cytoplasmic (Homo sapiens, UniProt O75874, R132H). Kind of data set: Inhibition of IDH1 (unknown origin) R132H mutant using alpha-KG as substrate after 60 mins in presence of NADPH by resazurin dye-based fluorescence assay. Background: Alamar Blue is a resazurin reagent that responds to reducing activity.
Data set [7] in a line: Intrinsic clearance in mouse liver microsomes assessed per gram of protein at 0.1 uM after 60 mins in presence of NADPH by LC-MS/MS analysis. The data set is classed as ADME, Microsome. The following applies: 1 h. (Microsomes from liver hold many membrane-bound enzymes, among them those of drug oxidation.)
The nature of data set [8]: Intrinsic clearance in rat liver microsomes assessed per gram of protein at 0.1 uM after 60 mins in presence of NADPH by LC-MS/MS analysis. The data set is classed as ADME, Microsome. As to conditions: 1 h.
Data set [9] in a line: Clearance in CD-1 mouse at 1 mg/kg, iv by mass spectrometric analysis. The data set is classed as ADME, organism-based. The following applies: in vivo.
A short description of data set [10]: Intrinsic clearance in human liver microsomes assessed per gram of protein at 0.1 uM after 60 mins in presence of NADPH by LC-MS/MS analysis. As to conditions: 1 h. The data set is classed as ADME, Microsome.
The nature of data set [11]: Stability in human liver microsomes assessed as parent compound remaining at 0.01 uM after 60 mins by LC-MS/MS analysis. The data set is classed as ADME, Microsome. As to conditions: read-out: Stability.
Data set [12] in a line: Dose normalized AUC in CD-1 mouse at 5 mg/kg, po administered via gavage by mass spectrometric analysis. The data set is classed as ADME, organism-based. The following applies: in vivo.
Data set [13] can be described thus: Drug level in human liver microsomes treated with (R)-3-(2-((1-(1-(3-chloro-4-fluorophenyl)-1H-imidazol-4-yl)cyclopropyl)amino)pyrimidin-4-yl)-4-((S)-1-fluoroethyl)oxazolidin-2-one at 0.01 uM after 60 mins by LC-MS/MS analysis. The format is ADME, Microsome.

Isocitrate dehydrogenase [NADP] cytoplasmic (Homo sapiens, UniProt O75874, R132H), sequence (O75874 2-414 R132H limits assumed): as the sequence (O75874 2-414 R132C limits assumed) above, with C131H counted along it

In the case of `C[C@H](F)[C@H]1COC(=O)N1c1ccnc(NC2(c3cn(-c4ccc(F)c(Cl)c4)cn3)CC2)n1`, the Vd (commonly the apparent volume that relates the amount in the body to the concentration in plasma or blood) in data set [1] is 1.2 L/kg. Also, in [2], the bioavailability (as a rule, the share of a dose that reaches the circulation, judged against a reference dose that is usually intravenous) is 20%. Also, the AUC (in general, the area under the concentration-time curve, a measure of exposure) turned out to be 40 ng·h/mL in data set [3] and 25 ng·h/mL in data set [4]. In addition, the IC50 – broadly, the concentration that gives 50% inhibition – in data set [5] was found to be 12 nM; in data set [6], 25 nM. The results for the CLint in data set [7], in [8] and in [10] were 185 mL/min/g, 133 mL/min/g and 125 mL/min/g, respectively. In data set [9], the clearance – broadly, the rate of elimination divided by the concentration – was 172 mL/min/kg. Moreover, the remaining at 1 h, 0.01 µM in [11] was determined as 22%.
For `C[C@H](F)[C@H]1COC(=O)N1c1ccnc(NC2(c3cn(-c4ccccc4C(F)(F)F)cn3)CC2)n1`, in data set [6], the IC50 came out at 112 nM.
For the compound `C[C@H](F)[C@H]1COC(=O)N1c1ccnc(NC2(c3cn(-c4ccc(F)c(Cl)c4)cn3)CCC2)n1`, the values for the IC50 in [5] and in [6] were 21 nM and 40 nM, respectively. Besides, the CLint in data set [7] amounted to 505 mL/min/g; in [8], 372 mL/min/g; in data set [10], 195 mL/min/g.
Regarding `C[C@H](F)[C@H]1COC(=O)N1c1ccnc(NC2(c3cn(-c4cccc(Cl)c4)cn3)CC2)n1`, the IC50 in data set [5] was 23 nM; in [6], 42 nM.
In the case of `C[C@H](F)[C@H]1COC(=O)N1c1ccnc(NC2(c3cn(-c4cccc(C(F)(F)F)c4)cn3)CC2)n1`, the values for the IC50 in [5] and in data set [6] were 10 nM and 32 nM, respectively. Besides, the values for the CLint in [7], in data set [8] and in [10] were 430 mL/min/g, 312 mL/min/g and 153 mL/min/g, respectively.
For `C[C@H](F)[C@H]1COC(=O)N1c1cc(Cl)nc(NC2(c3cn(-c4ccc(F)c(Cl)c4)cn3)CC2)n1`, the IC50 in [5] was found to be 25 nM; in [6], 32 nM. Moreover, the CLint in data set [7] is 155 mL/min/g; in data set [8], 123 mL/min/g; in [10], 110 mL/min/g.
Take `Cc1c(C2(Nc3nccc(N4C(=O)OC[C@@H]4[C@H](C)F)n3)CC2)ncn1-c1cccc(C(F)(F)F)c1`: the IC50 in data set [5] worked out at 38 nM; in [6], 56 nM.
The matching figures for `C[C@H](F)[C@H]1COC(=O)N1c1ccnc(NC2(c3cn(-c4cc(Cl)cc(Cl)c4)cn3)CC2)n1`: 21 nM and 36 nM.
For the compound `C[C@H](F)[C@H]1COC(=O)N1c1ccnc(NC2(c3cn(-c4ccc(C(F)(F)F)cc4)cn3)CC2)n1`, the IC50 was 32 nM in data set [5] and 65 nM in [6].
`C[C@H](F)[C@H]1COC(=O)N1c1ccnc(NC2(c3cn(-c4ccc(Cl)cc4)cn3)CC2)n1`: the IC50 in data set [5] came out at 56 nM; in data set [6] it was 54 nM.
In data set [1], `C[C@H](F)[C@H]1COC(=O)N1c1nc(NC2(c3cn(-c4ccc(F)c(Cl)c4)cn3)CC2)ncc1F` yielded a Vd of 0.6 L/kg. In [2], this compound yielded a bioavailability of 12%. The AUC in data set [3] came out at 257 ng·h/mL; in data set [4], 153 ng·h/mL. In addition, the IC50 came to 18 nM in [5] and 35 nM in [6]. The AUC/dose in [12] is given as 31 ng/mL.hr/(mg/kg). The CLint stood at 95 mL/min/g in data set [7], 89 mL/min/g in data set [8] and 55 mL/min/g in data set [10]. In data set [9], this compound had a clearance of 65 mL/min/kg.
As for `C[C@H](F)[C@H]1COC(=O)N1c1ccnc(NC2(c3ncn(-c4cccc(C(F)(F)F)c4)c3C#N)CC2)n1`, the IC50 amounted to 55 nM in data set [5] and 85 nM in data set [6].
Regarding `C[C@H](F)[C@H]1COC(=O)N1c1ccnc(NC2(c3cn(-c4cc(C(F)(F)F)ccn4)cn3)CC2)n1`, the IC50 in data set [6] came out at 250 nM.
`C[C@H](F)[C@H]1COC(=O)N1c1ccnc(NC2(c3ncn(-c4cccc(C(F)(F)F)c4)n3)CC2)n1`: the IC50 in [6] worked out at 831 nM.
For `O=C1OC[C@H]([C@@H](F)CO)N1c1cc(Cl)nc(NC2(c3cn(-c4ccc(F)c(Cl)c4)cn3)CC2)n1`, in [13], the Drug uptake result is recorded as “Active”.
For `C[C@H](F)[C@H]1COC(=O)N1c1ccnc(NC2(c3cn(-c4cc(F)cc(Cl)c4)cn3)CC2)n1`, the IC50 in data set [5] stood at 18 nM; in [6] it was 27 nM. Besides, the CLint in data set [7] was determined as 567 mL/min/g; in [8], 240 mL/min/g; in [10] it was 350 mL/min/g.
As to `C[C@H](F)[C@H]1COC(=O)N1c1ccnc(NC2(c3ncn(-c4cccc(C(F)(F)F)c4)c3Cl)CC2)n1`, the IC50 was determined as 26 nM in data set [5] and 41 nM in [6].
In the case of `C[C@H](F)[C@H]1COC(=O)N1c1ccnc(NC2(c3cn(-c4cncc(C(F)(F)F)c4)cn3)CC2)n1`, the IC50 in data set [6] is 152 nM.
Same read-out and setting: to `C[C@H](F)[C@H]1COC(=O)N1c1ccnc(NC2(c3cn(-c4cccc(C(F)(F)F)n4)cn3)CC2)n1` belongs 266 nM; to `CC(F)(F)[C@H]1COC(=O)N1c1ccnc(NC2(c3cn(-c4ccc(F)c(Cl)c4)cn3)CC2)n1`, 721 nM.
The same measure, in the same setting: to `C[C@H](F)[C@H]1COC(=O)N1c1ccnc(NC2(c3cn(-c4ccnc(C(F)(F)F)c4)cn3)CC2)n1` belongs 220 nM.

The values above are taken from ChEMBL document CHEMBL4325895, “Discovery and structure-activity-relationship study of novel imidazole cyclopropyl amine analogues for mutant isocitric dehydrogenase 1 (IDH1) inhibitors” (Bioorg Med Chem Lett, 2018).
